Experimental data as given in PubChem BioAssay (NCI).
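Each compound was tested at five concentrations against cells in 96-well plates for 48 hours. TGI marks complete inhibition of growth.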

Legend:
Experiment in all cases: NCI-60 cell line screen, 48 h
HL-60(TB) leukemia = system: HL-60(TB) leukemia
MDA-MB-435 = system: MDA-MB-435
COLO 205 colon = system: COLO 205 colon
HCT-116 colon = system: HCT-116 colon
LOX IMVI melanoma = system: LOX IMVI melanoma
MDA-N = system: MDA-N
SF-539 CNS = system: SF-539 CNS
SK-MEL-28 melanoma = system: SK-MEL-28 melanoma
UO-31 renal = system: UO-31 renal
SW-620 colon = system: SW-620 colon
IGROV1 ovarian = system: IGROV1 ovarian
HCT-15 colon = system: HCT-15 colon
MDA-MB-231 breast = system: MDA-MB-231 breast
SF-268 CNS = system: SF-268 CNS
CCRF-CEM leukemia = system: CCRF-CEM leukemia
ACHN renal = system: ACHN renal
A549 NSCLC = system: A549 NSCLC
MOLT-4 leukemia = system: MOLT-4 leukemia
DU-145 prostate = system: DU-145 prostate
HT29 colon = system: HT29 colon
OVCAR-3 ovarian = system: OVCAR-3 ovarian
SNB-19 CNS = system: SNB-19 CNS
K-562 leukemia = system: K-562 leukemia
T-47D breast = system: T-47D breast
A498 renal = system: A498 renal
NCI-H460 lung = system: NCI-H460 lung
NCI/ADR-RES ovarian = system: NCI/ADR-RES ovarian
U251 CNS = system: U251 CNS
CAKI-1 renal = system: CAKI-1 renal
KM12 colon = system: KM12 colon
NCI-H23 lung = system: NCI-H23 lung
HS 578T breast = system: HS 578T breast
RPMI-8226 leukemia = system: RPMI-8226 leukemia
SF-295 CNS = system: SF-295 CNS
TK-10 renal = system: TK-10 renal
SNB-75 CNS = system: SNB-75 CNS
786-0 renal = system: 786-0 renal
HOP-92 NSCLC = system: HOP-92 NSCLC
SK-MEL-2 melanoma = system: SK-MEL-2 melanoma
MCF7 breast = system: MCF7 breast
M14 melanoma = system: M14 melanoma
SK-MEL-5 melanoma = system: SK-MEL-5 melanoma
SN12C renal = system: SN12C renal
OVCAR-5 ovarian = system: OVCAR-5 ovarian
HOP-62 NSCLC = system: HOP-62 NSCLC
SK-OV-3 ovarian = system: SK-OV-3 ovarian
EKVX NSCLC = system: EKVX NSCLC
PC-3 prostate = system: PC-3 prostate
SR leukemia = system: SR leukemia
NCI-H226 lung = system: NCI-H226 lung
BT-549 breast = system: BT-549 breast
UACC-62 melanoma = system: UACC-62 melanoma
UACC-257 melanoma = system: UACC-257 melanoma
OVCAR-8 ovarian = system: OVCAR-8 ovarian
HCC-2998 colon = system: HCC-2998 colon
RXF 393 renal = system: RXF 393 renal
NCI-H522 lung = system: NCI-H522 lung
OVCAR-4 ovarian = system: OVCAR-4 ovarian
MALME-3M melanoma = system: MALME-3M melanoma

Measured: TGI

Cc1c(C)c(C)c(-n2[nH]c(=O)n(C)c2=O)c(C)c1C
not listed: HCC-2998 colon | RXF 393 renal | NCI-H522 lung | OVCAR-4 ovarian | MALME-3M melanoma
> 100 µM: all other assays above

CC1=NOC2(C1)/C(=N/O)CCC/C2=N\O (centres undefined)
not listed: HL-60(TB) leukemia | DU-145 prostate | A498 renal | HOP-92 NSCLC
> 100 µM: all other assays above
